Results reported in patent publication US6858597B2, “Halogenated sulphamate-, phosphonate-, thiophosphonate-, sulphonate- and sulphonamide- compounds as inhibitors of steroid sulphatase” (Sterix Limited, priority 1999, dated 2005).

Assays:
[1] = molecular target: T1, steroid sulphatase (Homo sapiens, UniProt P08842); settings: compared with EMATE, cited from earlier work; for E1-STS inactivation: 3-O-atom replaced by other heteroatoms
T1 sequence (P08842 22-583): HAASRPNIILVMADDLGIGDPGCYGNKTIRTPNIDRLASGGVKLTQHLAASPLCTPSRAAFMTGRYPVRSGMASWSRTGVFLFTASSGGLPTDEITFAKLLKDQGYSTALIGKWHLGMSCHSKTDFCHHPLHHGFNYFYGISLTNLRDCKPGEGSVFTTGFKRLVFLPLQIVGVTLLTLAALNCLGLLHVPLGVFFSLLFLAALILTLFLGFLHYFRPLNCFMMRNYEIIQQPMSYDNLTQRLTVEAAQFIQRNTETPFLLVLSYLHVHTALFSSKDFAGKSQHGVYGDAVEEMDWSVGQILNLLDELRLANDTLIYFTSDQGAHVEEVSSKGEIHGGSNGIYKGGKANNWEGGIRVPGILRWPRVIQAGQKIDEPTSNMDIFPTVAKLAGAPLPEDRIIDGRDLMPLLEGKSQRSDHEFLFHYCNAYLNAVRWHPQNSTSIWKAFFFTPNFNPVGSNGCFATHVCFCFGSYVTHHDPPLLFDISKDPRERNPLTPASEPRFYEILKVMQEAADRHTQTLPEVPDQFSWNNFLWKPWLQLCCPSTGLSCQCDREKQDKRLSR

[2] = system: rats; settings: cited from earlier work
[3] = system: MCF-7 cells; assay: Plate Assay in MCF-7 cells; format: cell-based; settings: Homo sapiens, MCF7
[4] = molecular target: T2, steroid sulphatase (STS) (Homo sapiens, UniProt P08842); assay: STS inhibition, IC50 (protocol not given); format: biochemical; settings: assay not given
T2 construct: Placental microsomes were obtained by centrifugation of the resulting supernatant at 100,000×g for 1 h; from tissue; host or cells: human placenta (microsomes)
T2 sequence (P08842 22-583): T1 sequence (P08842 22-583)
Experimental: Sulphatase-positive human placenta from normal term pregnancies are thoroughly minced with scissors and washed once with cold phosphate buffer (pH 7.4, 50 mM) then re-suspended in cold phosphate buffer (5 ml/g tissue). Homogenisation is accomplished with an Ultra-Turrax homogeniser, using three 10 second bursts separated by 2 minute cooling periods in ice. Nuclei and cell debris are removed by centrifuging (4° C.) at 2000 g for 30 minutes and portions (2 ml) of the supernatant are stored at […] The protein concentration of the supernatants is determined by the method of Bradford (Anal. Biochem., 72, 248-254 (1976)).
Incubations (1 ml) are carried out using a protein concentration of […], substrate concentration of […] [6,7-3H]oestrone-3-sulphate (specific activity 60 Ci/mmol from New England Nuclear, Boston, Mass., U.S.A.) and an incubation time of 20 minutes at 37° C. If necessary eight concentrations of compounds are employed: 0 (i.e. control); 0.05 mM; 0.1 mM; 0.2 mM; 0.4 mM; 0.6 mM; 0.8 mM; 1.0 mM. After incubation each sample is cooled and the medium (1 ml) was pipetted into separate tubes containing [14C]oestrone (7×10^3 dpm) (specific activity 97 Ci/mmol from Amersham International Radiochemical Centre, Amersham, U.K.). The mixture is shaken thoroughly for 30 seconds with toluene (5 ml). Experiments have shown that >90% [14C]oestrone and <0.1% [3H]oestrone-3-sulphate is removed from the aqueous phase by this treatment. A portion (2 ml) of the organic phase was removed, evaporated and the 3H and 14C content of the residue determined by scintillation spectrometry. The mass of oestrone-3-sulphate hydrolysed is calculated from the 3H counts obtained (corrected for the volumes of the medium and organic phase used, and for recovery of [14C]oestrone added) and the specific activity of the substrate.
A sulphatase—positive human placenta was used as a source of placental microsomes. Tissue was homogenised and nuclei and cell debris removed by centrifugation at 2000×g for 30 min. Placental microsomes were obtained by centrifugation of the resulting supernatant at 100,000×g for 1 h.
For inhibition studies placental microsomes (125 μg/ml) were incubated in the absence or presence of inhibitors (1 pm-1.0 μM) with ^3H estrone sulphate (E1S, 2×10^5 dpm adjusted to 20 μM with unlabelled E1S for 60 mins. [4-^14C E1] (7×10^3 dpm) was added to correct for procedural losses and free and sulphated steroids separated by solvent partition using toluene. A portion of the solvent was removed and the ^3H and ^14C content determined by liquid scintillation spectrometry.

[5] = system: T47D cells; assay: Effect of Halo-EMATEs on T47D cell growth (plate assay); format: cell-based; parameters: key to Morphology: +: has effect on cell morphology; settings: for inhibition at 1 µM / inhibition at 10 µM: Homo sapiens, 24 h
Experimental: Effect of Halo-EMATES on T47D Cell Growth (Plate Assay)
T47D receptor positive breast cancer cells were seeded into a 96 well cell culture plate and allowed to grow until approximately 70% confluent. Cells were treated with either vehicle (controls, tetrahydrofuran in medium) or halo-EMATEs (1 or 10 μM) and cultured for a further 24 h. At the end of this period effects of the drugs on cell numbers were determined using a microtitre plate assay (Cell Titre 96 cell proliferation assay, Promega). In this assay the conversion of substrate by untreated cells at the end of the culture period was set at 100%.

[6] = cited from earlier work
[7] = molecular target: T3, E1-STS (Homo sapiens, UniProt P08842); settings: intact MCF-7 cells, 0.1 mM; cited from earlier work
T3 construct: endogenous in cells; host or cells: MCF-7
T3 sequence (P08842 22-583): T1 sequence (P08842 22-583)

COc1cc2c(cc1OS(N)(=O)=O)CC[C@@H]1[C@@H]2CC[C@]2(C)C(=O)CC[C@@H]12 [2-methoxyoestrone-3-O-sulphamate]
potency as steroid sulphatase inhibitor [1]: equipotent with EMATE
oestrogenicity ([2]; rat, in vivo): devoid of oestrogenicity

C[C@]12CC[C@@H]3c4cc(Br)c(OS(N)(=O)=O)cc4CC[C@H]3[C@@H]1CCC2=O [Compound 4, 2-Bromooestrone 3-O-sulphamate]
inhibition at 10 µM [3]: 33%
IC50 [4]: 1.65 nM
Morphology [5]: +

C[C@]12CC[C@@H]3c4cc(I)c(OS(N)(=O)=O)cc4CC[C@H]3[C@@H]1CCC2=O [Compound 7, 2-Iodooestrone 3-O-sulphamate]
inhibition at 10 µM [3]: 25%
IC50 [4]: 6.1 nM
Morphology [5]: +

C[C@]12CC[C@@H]3c4cc(Cl)c(OS(N)(=O)=O)cc4CC[C@H]3[C@@H]1CCC2=O [Compound 10, 2-Chloroestrone 3-O-sulphamate]
inhibition at 10 µM [3]: 35%
IC50 [4]: 0.8 nM
Morphology [5]: +
inhibition at 1 µM [5]: 1%
inhibition at 10 µM [5]: 7.5%

C[C@]12CCC3c4cc(F)c(OS(N)(=O)=O)cc4CCC3C1CCC2=O (stereo partly shown) [Compound 13, 2-Fluorooestrone-3-O-sulphamate]
IC50 [4]: 5.6 nM
Morphology [5]: +
inhibition at 1 µM [5]: < 1%
inhibition at 10 µM [5]: 30%

C[C@]12CC[C@@H]3c4ccc(OS(=O)(=O)O)cc4CC[C@H]3[C@@H]1CCC2=O [Compound E1S, oestrone sulphate]
half-life in blood [6]: 10 to 12 h

CC12CCC3c4ccc(OS(N)(=O)=O)cc4CCC3C1CCC2=O (stereo not shown) [EMATE, oestrone-3-O-sulphamate]
oral uterotrophic activity relative to estradiol ([2]; rats, oral): 100 times
inhibition of E1-STS activity [7]: more than 99%

oestrone-3-N-sulphamate
E1-STS inactivation [1]: weaker non-time-dependent inactivators

oestrone-3-S-sulphamate
E1-STS inactivation [1]: weaker non-time-dependent inactivators
